compound: CC(C)N(CCCNC(=O)Nc1ccc(C(C)(C)C)cc1)C[C@H]1O[C@@H](n2ccc3c(N)ncnc32)[C@H](O)[C@@H]1O + COc1cccc2cc(-c3nc([C@H]4CC[C@H](C(=O)O)CC4)n4ncnc(N)c34)[nH]c12 [OSI-027] (partner 0.5 µM); test: relative viability (nuclei count vs DMSO), 5 days (fraction); higher = more cells survive; conditions: first compound 8 µM
Procedure, shortened: (§1)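 A single step with final 0.05% Triton X-100, 1% formaldehyde and 1 ug/ml Hoechst fixed the cells and stained nuclei 5 days after treatment. Lung cancer cell lines in 1536-well plates had been treated by pin tool the day after seeding with one drug alone or a fixed anchor-drug dose plus five library-drug doses (not always all listed) in √10 steps, and nuclei were counted on 4× images. Relative viability is the ratio of nuclei in treated wells to nuclei in vehicle wells, taken as the median of duplicate plates.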

Cell Line	relative viability
NCI-H322M	0.579
NCI-H1437	0.867
NCI-H1755	0.667
NCI-H2085	1
HCC-15	0.655
RERF-LC-KJ	0.453
EKVX	0.668
LC-2-ad	0.855
NCI-H1563	0.799
NCI-H1944	0.405
NCI-H1975	0.598
SW 1573	0.705
ABC-1	0.529
NCI-H358	0.714
NCI-H727	0.666
SK-LU-1	0.338

compound: CC(C)=CC[C@@H](O)C1=CC(=O)c2c(O)ccc(O)c2C1=O [Shikonin] + CS(=O)(=O)CCNCc1ccc(-c2ccc3ncnc(Nc4ccc(OCc5cccc(F)c5)c(Cl)c4)c3c2)o1 [Lapatinib] (partner 2 µM); test: as above; conditions: first compound 0.01 µM
Procedure, shortened: as §1

Cell Line	relative viability
NCI-H2023	0.806
A-427	1.05
NCI-H460	1.32
NCI-H838	1.02
NCI-H1734	1.17
NCI-H596	1.19
NCI-H2405	1.13
201T	1.05
NCI-H1915	1.01
HCC-827	0.166
LXF-289	0.959
NCI-H2347	0.981
NCI-H661	0.575
CAL-12T	0.636
NCI-H1651	0.714
EPLC-272H	0.869
NCI-H23	1.2
NCI-H1792	0.922

Cell Line	relative viability
NCI-H1355	1.07
NCI-H322M	0.582
NCI-H1437	0.846
NCI-H1755	1.13
NCI-H2085	0.767
HCC-15	0.945
RERF-LC-KJ	0.972
EKVX	0.18
LC-2-ad	0.798
NCI-H1563	0.87
NCI-H1944	0.89
NCI-H1975	0.871
SW 1573	1.07
ABC-1	1.5
NCI-H358	0.374
NCI-H727	0.923
SK-LU-1	1.07

same assay, conditions: first compound 0.1 µM

Cell Line	relative viability
NCI-H2023	1.14
A-427	1.37
NCI-H460	1.51
NCI-H838	1.03
NCI-H1734	1.25
NCI-H596	1.02
NCI-H2405	1.28
201T	1.12
NCI-H1915	1.18
HCC-827	0.17
LXF-289	1
NCI-H2347	1.01
NCI-H661	0.494
CAL-12T	0.632
NCI-H1651	0.925
EPLC-272H	1.2
NCI-H23	1.14
NCI-H1792	1.06

Cell Line	relative viability
NCI-H1355	1.05
NCI-H322M	0.595
NCI-H1437	0.78
NCI-H1755	1.27
NCI-H2085	0.727
HCC-15	0.996
RERF-LC-KJ	0.939
EKVX	0.202
LC-2-ad	1.38
NCI-H1563	1.08
NCI-H1944	0.894
NCI-H1975	1.17
SW 1573	1.18
ABC-1	1.28
NCI-H358	0.53
NCI-H727	0.96
SK-LU-1	0.869

same assay, conditions: first compound 0.3162 µM

Cell Line	relative viability
NCI-H2023	1.02
A-427	0.967
NCI-H460	0.951
NCI-H838	0.979
NCI-H1734	1.02
NCI-H596	1.15
NCI-H2405	1.11
201T	1.02
NCI-H1915	1
HCC-827	0.191
LXF-289	0.906
NCI-H2347	1.08
NCI-H661	0.501
CAL-12T	0.649
NCI-H1651	0.919
EPLC-272H	1.08
NCI-H23	1.13
NCI-H1792	0.968

Cell Line	relative viability
NCI-H1355	1.07
NCI-H322M	0.585
NCI-H1437	0.884
NCI-H1755	1.12
NCI-H2085	0.718
HCC-15	0.918
RERF-LC-KJ	0.83
EKVX	0.214
LC-2-ad	1.04
NCI-H1563	0.923
NCI-H1944	0.789
NCI-H1975	0.859
SW 1573	1.14
ABC-1	1.27
NCI-H358	0.412
NCI-H727	0.745
SK-LU-1	0.724

same assay, conditions: first compound 1 µM

Cell Line	relative viability
NCI-H2023	0.867
A-427	1.14
NCI-H460	1.12
NCI-H838	0.996
NCI-H1734	1.09
NCI-H596	0.98
NCI-H2405	1.16
201T	1.05
NCI-H1915	1.09
HCC-827	0.19
LXF-289	0.945
NCI-H2347	0.913
NCI-H661	0.594
CAL-12T	0.638
NCI-H1651	0.844
EPLC-272H	1.22
NCI-H23	1.03
NCI-H1792	1.09
NCI-H1355	1.05
NCI-H322M	0.566
NCI-H1437	0.848
NCI-H1755	1.09
NCI-H2085	0.774
HCC-15	0.919
RERF-LC-KJ	0.941
EKVX	0.19
LC-2-ad	0.965
